Source: patent EP4714938A1, “HDAC1/2 SELECTIVE INHIBITOR AND USE THEREOF” (Wigen Biomedicine Technology (Shanghai) Co., Ltd., priority 2023, dated 2024)
Where two headings read alike, the source gives them in different places.

Experiments:
Acetyl lysine = test: Intracellular acetyl lysine level by ELISA in HeLa cells; type: cell-based; conditions: 24 h of treatment
Method: HeLa cells were seeded into a 96-well plate at 20000 cells/well. After overnight adherence culture, the serially diluted compound was added. After 24 h of treatment, intracellular levels of acetyl lysine and H3K 27 acetyl lysine were quantified by ELISA. Table 8. Effect of compound of the present disclosure on levels of acetyl lysine and H3K 27 acetyl lysine

HDAC5 = HDAC5 (Homo sapiens, UniProt Q9UQL6); test: HDAC enzyme inhibitory activity, FRET method; type: biochemical; conditions: Table 6; read-out: IC50 HDAC subtype 5
Method: (§1) The compounds of the present disclosure were assayed for enzyme inhibitory activity against various subtypes of HDAC enzymes by the FRET method. The various subtypes of HDAC enzymes were obtained either through purification or direct purchase of assay kits.
(§2) The specific method was as follows: The enzyme was added to a 384-well plate, and a reaction buffer was added to the control well. Serially diluted DMSO sample solutions were added to the reaction wells, and the plate was incubated at room temperature for 15 min. Then a chromogenic agent was added to stop the reaction, and fluorescence was generated. The fluorescence intensity was measured using an EnVision multi-label microplate reader (excitation: 355 nm, emission: 460 nm). The endpoint value was read after the color development reached stability. The inhibition IC50 of the compounds was calculated using GraphPad Prism4 software relative to DMSO.

HDAC3 = HDAC3 (Homo sapiens, UniProt O15379); test: HDAC enzyme inhibitory activity, FRET method; type: biochemical
Method: as §1, §2

HDAC8 = target: T1, HDAC8 (Homo sapiens, UniProt Q9BY41); test: HDAC enzyme inhibitory activity, FRET method; type: biochemical; conditions: Table 6; read-out: IC50 HDAC subtype 8
T1 sequence (Q9BY41 1-377): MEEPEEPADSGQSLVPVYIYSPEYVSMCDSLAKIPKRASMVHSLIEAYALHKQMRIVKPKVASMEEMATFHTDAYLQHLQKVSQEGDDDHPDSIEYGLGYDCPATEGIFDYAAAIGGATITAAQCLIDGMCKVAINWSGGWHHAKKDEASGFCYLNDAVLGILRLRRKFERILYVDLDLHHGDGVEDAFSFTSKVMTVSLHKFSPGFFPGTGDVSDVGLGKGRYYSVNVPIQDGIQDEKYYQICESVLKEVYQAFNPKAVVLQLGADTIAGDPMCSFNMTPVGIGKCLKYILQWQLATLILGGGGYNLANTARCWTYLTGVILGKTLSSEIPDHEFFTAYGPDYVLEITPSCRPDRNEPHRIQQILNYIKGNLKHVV
Method: as §1, §2

HDAC10 = target: T2, HDAC10 (Homo sapiens, UniProt Q969S8); test: biochemical
T2 sequence (Q969S8 1-669): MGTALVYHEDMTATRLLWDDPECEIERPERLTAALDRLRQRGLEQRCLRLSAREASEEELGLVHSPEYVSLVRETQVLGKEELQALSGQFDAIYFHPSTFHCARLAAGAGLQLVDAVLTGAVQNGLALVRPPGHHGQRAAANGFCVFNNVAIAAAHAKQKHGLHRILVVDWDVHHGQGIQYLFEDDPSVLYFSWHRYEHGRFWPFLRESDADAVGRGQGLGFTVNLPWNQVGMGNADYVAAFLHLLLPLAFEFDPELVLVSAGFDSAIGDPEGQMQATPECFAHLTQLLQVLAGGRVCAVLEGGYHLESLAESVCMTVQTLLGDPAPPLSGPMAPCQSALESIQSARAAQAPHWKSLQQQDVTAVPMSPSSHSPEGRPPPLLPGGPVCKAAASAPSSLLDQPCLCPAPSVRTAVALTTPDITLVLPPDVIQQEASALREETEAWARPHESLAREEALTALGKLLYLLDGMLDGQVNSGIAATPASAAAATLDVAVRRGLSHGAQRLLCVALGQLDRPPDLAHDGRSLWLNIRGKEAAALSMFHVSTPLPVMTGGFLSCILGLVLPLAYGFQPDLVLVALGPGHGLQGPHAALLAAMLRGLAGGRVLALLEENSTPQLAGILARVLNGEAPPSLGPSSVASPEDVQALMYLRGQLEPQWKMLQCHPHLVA
Method: as §1, §2

HDAC9 = HDAC9 (Homo sapiens, UniProt Q9UKV0); test: HDAC enzyme inhibitory activity, FRET method; type: biochemical; conditions: Table 6; read-out: IC50 HDAC subtype 9
Method: as §1, §2

HDAC6 = target: T3, HDAC6 (Homo sapiens, UniProt Q9UBN7); test: HDAC enzyme inhibitory activity, FRET method; type: biochemical; conditions: Table 6; read-out: IC50 HDAC subtype 6
T3 sequence (Q9UBN7 1-1215): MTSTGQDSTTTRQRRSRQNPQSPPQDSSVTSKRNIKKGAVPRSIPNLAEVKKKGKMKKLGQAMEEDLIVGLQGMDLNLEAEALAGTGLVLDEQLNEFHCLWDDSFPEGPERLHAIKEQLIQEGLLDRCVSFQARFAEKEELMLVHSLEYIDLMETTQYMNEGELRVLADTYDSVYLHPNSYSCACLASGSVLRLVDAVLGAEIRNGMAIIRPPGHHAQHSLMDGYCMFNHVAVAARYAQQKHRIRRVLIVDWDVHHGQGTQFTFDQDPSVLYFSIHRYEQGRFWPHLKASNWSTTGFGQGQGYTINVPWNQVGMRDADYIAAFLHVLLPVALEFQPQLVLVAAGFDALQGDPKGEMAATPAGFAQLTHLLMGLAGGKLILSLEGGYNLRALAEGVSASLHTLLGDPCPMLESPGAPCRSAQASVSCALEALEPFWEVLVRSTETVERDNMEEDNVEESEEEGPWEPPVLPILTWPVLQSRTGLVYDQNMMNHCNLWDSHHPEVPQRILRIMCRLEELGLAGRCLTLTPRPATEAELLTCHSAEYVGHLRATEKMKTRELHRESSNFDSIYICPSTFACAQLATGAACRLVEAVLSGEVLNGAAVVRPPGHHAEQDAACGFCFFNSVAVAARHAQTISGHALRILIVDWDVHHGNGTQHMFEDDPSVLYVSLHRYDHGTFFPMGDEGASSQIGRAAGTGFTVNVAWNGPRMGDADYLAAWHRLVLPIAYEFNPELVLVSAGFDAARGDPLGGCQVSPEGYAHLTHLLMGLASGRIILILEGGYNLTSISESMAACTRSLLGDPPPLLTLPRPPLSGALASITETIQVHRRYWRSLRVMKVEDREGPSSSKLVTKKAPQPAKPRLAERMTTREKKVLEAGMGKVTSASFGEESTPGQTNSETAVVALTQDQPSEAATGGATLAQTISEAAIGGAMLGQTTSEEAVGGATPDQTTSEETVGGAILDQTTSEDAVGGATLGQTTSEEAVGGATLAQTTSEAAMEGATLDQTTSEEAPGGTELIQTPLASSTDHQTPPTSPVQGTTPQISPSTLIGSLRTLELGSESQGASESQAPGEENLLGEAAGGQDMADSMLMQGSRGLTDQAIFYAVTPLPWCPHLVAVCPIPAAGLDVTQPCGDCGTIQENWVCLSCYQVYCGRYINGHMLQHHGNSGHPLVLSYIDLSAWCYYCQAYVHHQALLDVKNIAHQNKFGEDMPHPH
Method: as §1, §2

Chain of HDAC3 (O15379 whole entry, species assumed): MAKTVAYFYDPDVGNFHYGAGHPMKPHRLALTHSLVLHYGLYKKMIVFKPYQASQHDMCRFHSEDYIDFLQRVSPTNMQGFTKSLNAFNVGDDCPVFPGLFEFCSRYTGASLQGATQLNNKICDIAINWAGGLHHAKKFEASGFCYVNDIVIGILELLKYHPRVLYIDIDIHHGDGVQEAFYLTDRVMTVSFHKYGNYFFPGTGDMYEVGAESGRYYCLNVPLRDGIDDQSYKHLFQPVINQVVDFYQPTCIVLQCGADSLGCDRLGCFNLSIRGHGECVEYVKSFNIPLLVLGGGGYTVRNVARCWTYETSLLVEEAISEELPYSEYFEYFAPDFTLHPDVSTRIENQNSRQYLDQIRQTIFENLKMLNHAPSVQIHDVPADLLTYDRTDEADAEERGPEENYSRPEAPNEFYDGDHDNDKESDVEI
Chain of HDAC3 (Q9Y618 395-489 partner limits assumed, species assumed): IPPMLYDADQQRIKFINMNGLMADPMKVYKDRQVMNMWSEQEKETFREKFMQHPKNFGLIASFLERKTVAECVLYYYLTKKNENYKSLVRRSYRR
Chain of HDAC5 (Q9UQL6 whole entry, species assumed): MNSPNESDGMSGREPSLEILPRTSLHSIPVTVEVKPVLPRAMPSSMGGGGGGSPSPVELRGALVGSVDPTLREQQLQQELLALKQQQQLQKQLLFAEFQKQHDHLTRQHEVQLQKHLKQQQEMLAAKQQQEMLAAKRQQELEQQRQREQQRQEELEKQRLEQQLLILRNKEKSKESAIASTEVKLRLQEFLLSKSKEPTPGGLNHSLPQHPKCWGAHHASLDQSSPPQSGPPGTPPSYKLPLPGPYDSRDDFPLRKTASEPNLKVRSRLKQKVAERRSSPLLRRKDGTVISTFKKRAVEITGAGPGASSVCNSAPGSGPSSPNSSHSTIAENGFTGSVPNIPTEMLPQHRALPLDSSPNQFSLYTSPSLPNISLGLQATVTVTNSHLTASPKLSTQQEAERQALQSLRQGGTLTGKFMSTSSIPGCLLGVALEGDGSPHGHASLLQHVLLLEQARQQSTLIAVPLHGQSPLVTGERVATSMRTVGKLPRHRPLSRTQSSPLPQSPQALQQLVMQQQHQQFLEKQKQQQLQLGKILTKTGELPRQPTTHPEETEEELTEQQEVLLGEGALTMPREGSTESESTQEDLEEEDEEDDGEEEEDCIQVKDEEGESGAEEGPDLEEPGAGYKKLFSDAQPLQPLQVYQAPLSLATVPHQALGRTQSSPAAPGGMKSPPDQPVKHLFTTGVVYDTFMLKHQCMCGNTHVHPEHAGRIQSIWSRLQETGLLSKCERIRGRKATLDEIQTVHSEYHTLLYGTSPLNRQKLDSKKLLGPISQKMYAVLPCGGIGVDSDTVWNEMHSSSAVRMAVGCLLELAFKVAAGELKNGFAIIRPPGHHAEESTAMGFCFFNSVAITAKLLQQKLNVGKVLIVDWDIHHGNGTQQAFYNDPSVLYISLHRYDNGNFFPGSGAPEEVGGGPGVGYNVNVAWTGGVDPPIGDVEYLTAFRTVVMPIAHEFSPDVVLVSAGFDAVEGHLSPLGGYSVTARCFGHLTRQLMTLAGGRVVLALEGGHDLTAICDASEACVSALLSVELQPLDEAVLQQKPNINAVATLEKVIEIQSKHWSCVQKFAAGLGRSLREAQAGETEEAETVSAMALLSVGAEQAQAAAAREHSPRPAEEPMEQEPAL
Chain of HDAC9 (Q9UKV0 whole entry, species assumed): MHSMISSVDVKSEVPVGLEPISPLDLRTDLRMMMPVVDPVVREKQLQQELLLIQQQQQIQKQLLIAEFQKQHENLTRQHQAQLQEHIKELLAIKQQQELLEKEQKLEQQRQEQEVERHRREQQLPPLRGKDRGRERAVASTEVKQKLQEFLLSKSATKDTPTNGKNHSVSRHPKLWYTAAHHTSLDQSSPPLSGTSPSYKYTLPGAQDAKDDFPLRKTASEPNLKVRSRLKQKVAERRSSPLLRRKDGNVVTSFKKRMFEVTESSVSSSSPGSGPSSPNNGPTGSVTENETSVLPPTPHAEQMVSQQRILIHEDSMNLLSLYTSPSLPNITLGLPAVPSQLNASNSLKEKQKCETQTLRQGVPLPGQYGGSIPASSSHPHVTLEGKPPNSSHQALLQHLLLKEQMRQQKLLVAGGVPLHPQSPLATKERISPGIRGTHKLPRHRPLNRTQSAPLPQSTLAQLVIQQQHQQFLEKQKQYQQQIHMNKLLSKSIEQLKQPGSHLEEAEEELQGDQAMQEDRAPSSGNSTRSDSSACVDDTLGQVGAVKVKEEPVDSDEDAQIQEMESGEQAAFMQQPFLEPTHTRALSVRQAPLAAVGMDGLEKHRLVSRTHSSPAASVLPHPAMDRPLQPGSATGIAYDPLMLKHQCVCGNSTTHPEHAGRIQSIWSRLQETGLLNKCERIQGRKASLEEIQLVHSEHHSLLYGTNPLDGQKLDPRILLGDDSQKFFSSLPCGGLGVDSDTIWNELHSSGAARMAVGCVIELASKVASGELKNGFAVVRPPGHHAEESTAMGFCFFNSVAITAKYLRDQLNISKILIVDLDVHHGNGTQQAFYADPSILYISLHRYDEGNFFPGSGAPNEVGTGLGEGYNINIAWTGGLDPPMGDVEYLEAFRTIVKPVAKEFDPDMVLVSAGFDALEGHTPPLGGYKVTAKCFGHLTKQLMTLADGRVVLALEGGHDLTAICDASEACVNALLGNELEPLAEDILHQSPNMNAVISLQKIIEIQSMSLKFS

SMILES: CS(C)(=O)=Nc1ccc(C(=O)Nc2cc(-c3ccc(F)cc3)ccc2N)cc1 [Compound 1, N-(4-Amino-4'-fluoro-[1,1'-biphenyl]-3-yl)-4-((dimethyl(oxo)-1^λ-6-sulfaneylidene)amino)benzamide]
- Acetyl lysine Maximum (%) (Acetyl lysine): 500%
- Acetyl lysine Minimum effective concentration (Acetyl lysine): 16 nM
- IC50 (HDAC5): > 30 µM
- IC50 (HDAC3; Table 4, read-out: IC50 HDAC3): > 5 µM
- IC50 (HDAC3; Table 5, read-out: IC50 HDAC3): > 3 µM
- IC50 (HDAC3; Table 6, read-out: IC50 HDAC subtype 3): 5.51 µM
- IC50 (HDAC8): > 30 µM
- IC50 (HDAC10): 0.0222 µM
- IC50 (HDAC9): > 30 µM
- IC50 (HDAC6): > 30 µM
